# Source: paper PMC2876253, “MHC I Stabilizing Potential of Computer-Designed Octapeptides” (Journal of Biomedicine and Biotechnology, 2010)
# Where no end group is shown, it is not given here.
# Molecular target: T1, H-2K^b (Mus musculus, UniProt P01901)
# T1 construct: For accumulation of peptide-free MHC I proteins at the cell surface, the cells were cultured for 16 hours at 26°C; endogenous in cells; host or cells: RMA-S cells (TAP-deficient mouse T lymphoma)
# T1 sequence (P01901 22-369): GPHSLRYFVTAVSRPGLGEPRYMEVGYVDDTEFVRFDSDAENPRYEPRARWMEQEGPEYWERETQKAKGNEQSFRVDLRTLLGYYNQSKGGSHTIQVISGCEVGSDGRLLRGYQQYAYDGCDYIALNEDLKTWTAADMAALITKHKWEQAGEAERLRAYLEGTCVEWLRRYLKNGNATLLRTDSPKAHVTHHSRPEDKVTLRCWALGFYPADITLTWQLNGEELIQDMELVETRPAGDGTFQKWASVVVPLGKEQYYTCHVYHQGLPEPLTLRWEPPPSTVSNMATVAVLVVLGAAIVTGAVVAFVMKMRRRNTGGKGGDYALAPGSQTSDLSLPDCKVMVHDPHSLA
# T1 sequence (P01887 21-119 partner): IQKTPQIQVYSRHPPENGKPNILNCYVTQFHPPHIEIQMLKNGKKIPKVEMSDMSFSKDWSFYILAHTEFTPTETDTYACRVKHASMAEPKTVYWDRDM
# Assay: MHC I stabilization assay with TAP-deficient RMA-S cells
# Assay type: cell-based
# Conditions: peptide concentration for 50% of maximal MHC I stabilization (half-maximal MFI), 100 to 5.6 × 10^−4 μg/mL, 1 h room temperature then 1 h 37°C, flow cytometry with antibody B8.24.3, standard deviation in brackets, N = 3, n.d.: not detectable, SD, read-out: Experimental EC50
# Protocol: The stabilization assay was performed as described by Brock et al. using TAP-deficient RMA-S cells (mutagenized Rauscher virus-induced T lymphoma cells of mouse origin). The cells were cultured in DMEM (Gibco-BRL, Karlsruhe, Germany) with 10% FCS (Sigma-Aldrich, Steinheim, Germany) at 37°C with 8% CO2. For accumulation of peptide-free MHC I proteins at the cell surface, the cells were cultured for 16 hours at 26°C. […] The stabilized MHC I proteins were visualized and quantified by flow cytometry using the H-2K^b specific monoclonal antibody B8.24.3 [23] purified in the laboratory from hybridoma culture supernatant by protein G affinity chromatography (Pierce, Darmstadt, Germany) and an R-Phycoerythrin-conjugated anti-mouse antibody (Dianova GmbH, Hamburg, Germany) as secondary reagent. The stabilizing effect of the peptides was determined as mean fluorescence intensity (MFI). The EC50 value is the peptide concentration that is required for half-maximal stabilization of the MHC I molecules at the cell surfaces (half-maximal MFI). All peptides were custom-synthesized by EMC microcollections GmbH (Tübingen, Germany).
row,Sequence,EC50 [µM]
1,FHWDYRGL [Peptide 3],25
2,FRYPYKTL [Peptide 1],24
3,WDFKFDSV [Peptide 7],9
4,WKFIFDPV [Peptide 8],0.4
5,WRFIYFNL [Peptide 6],3.6
6,WRFKYDNL [Peptide 4],7
7,WRFVYWRL [Peptide 5],8

# Same assay, conditions: peptide concentration for 50% of maximal MHC I stabilization (half-maximal MFI), 100 to 5.6 × 10^−4 μg/mL, 1 h room temperature then 1 h 37°C, flow cytometry with antibody B8.24.3, standard deviation in brackets, N = 3, n.d.: not detectable, read-out: Experimental EC50
row,Sequence,EC50 [µM]
1,FHHAHRTV [sequence 9],9
2,FRYIYHTL [Seq. 2],20

# Molecular target: T1, H-2K^b
# Assay: not given
# Set-up: method as in PMID 1606619
# Conditions: known nonstabilizing octapeptide; cited from earlier work
row,Sequence,H-2K^b stabilizing effect in words
1,LSPFPFDL,nonstabilizing
